In PubChem BioAssay AID2060613 (Molecular Pharmacology Branch, DTP, NCI, 2025):

Tested on: 233499-124-R-J3-PDC complex spheroid viability
Experiment: Anticancer human tumor 233499-124-R-J3-PDC patient-derived colon adenocarcinoma cell line growth inhibition [CLK]
Conditions: for IC50: curve of first compound; for viability, T/C: stronger effect = lower value
Procedure, shortened: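 Patient-derived tumor cells grown as complex spheroids with HUVEC endothelial cells and mesenchymal stem cells, treated with drug combinations. Concentrations descend in half-log steps from near clinical Cmax, or from 10 microM if Cmax unknown.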
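Further: spheroids exposed to the drug combinations for seven days.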
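Wherever viability, T/C is given: percent viability relative to DMSO vehicle control wells taken as 100%.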

Q: `Cn1ncnc1[C@H]1c2n[nH]c(=O)c3cc(F)cc(c23)N[C@@H]1c1ccc(F)cc1` + CN1CCN(c2cc(C(=O)Nc3cc4cc(-c5cnn(C)c5)ccc4cn3)ccn2)CC1 was tested. Which IC50 (second compound 0.0316 µM) did it give?
A: > 0.1 µM

Q: And the IC50 (second compound 0.1 µM)?
A: > 0.1 µM

Q: And the IC50 (second compound 0.316 µM)?
A: > 0.1 µM

Q: What about the IC50 (second compound 1 µM) of the same compound?
A: < 0.000316 µM

Q: What about the IC50 (second compound 3.16 µM) of the same compound?
A: < 0.000316 µM

Q: What about the IC50 (second compound 10 µM) of the same compound?
A: < 0.000316 µM

Q: And the viability, T/C (second compound 0.0316 µM, first compound 0.000316 µM)?
A: 91.2%

Q: And the viability, T/C (second compound 0.0316 µM, first compound 0.001 µM)?
A: 108%

Q: What about the viability, T/C (second compound 0.0316 µM, first compound 0.00316 µM) of the same compound?
A: 100%

Q: And the viability, T/C (second compound 0.0316 µM, first compound 0.01 µM)?
A: 110%

Q: And the viability, T/C (second compound 0.0316 µM, first compound 0.0316 µM)?
A: 104%

Q: What about the viability, T/C (second compound 0.0316 µM, first compound 0.1 µM) of the same compound?
A: 92.7%

Q: What about the viability, T/C (second compound 0.1 µM, first compound 0.000316 µM) of the same compound?
A: 100%

Q: What about the viability, T/C (second compound 0.1 µM, first compound 0.001 µM) of the same compound?
A: 105%

Q: What about the viability, T/C (second compound 0.1 µM, first compound 0.00316 µM) of the same compound?
A: 89.5%

Q: What about the viability, T/C (second compound 0.1 µM, first compound 0.01 µM) of the same compound?
A: 97.8%

Q: And the viability, T/C (second compound 0.1 µM, first compound 0.0316 µM)?
A: 92.1%

Q: And the viability, T/C (second compound 0.1 µM, first compound 0.1 µM)?
A: 94.4%

Q: What about the viability, T/C (second compound 0.316 µM, first compound 0.000316 µM) of the same compound?
A: 85.5%

Q: What about the viability, T/C (second compound 0.316 µM, first compound 0.001 µM) of the same compound?
A: 103%

Q: And the viability, T/C (second compound 0.316 µM, first compound 0.00316 µM)?
A: 101%

Q: And the viability, T/C (second compound 0.316 µM, first compound 0.01 µM)?
A: 89.6%

Q: What about the viability, T/C (second compound 0.316 µM, first compound 0.0316 µM) of the same compound?
A: 92.7%

Q: And the viability, T/C (second compound 0.316 µM, first compound 0.1 µM)?
A: 101%

Q: What about the viability, T/C (second compound 1 µM, first compound 0.000316 µM) of the same compound?
A: 19.1%

Q: And the viability, T/C (second compound 1 µM, first compound 0.001 µM)?
A: 2.31%

Q: What about the viability, T/C (second compound 1 µM, first compound 0.00316 µM) of the same compound?
A: 5.38%

Q: And the viability, T/C (second compound 1 µM, first compound 0.01 µM)?
A: 1.23%

Q: What about the viability, T/C (second compound 1 µM, first compound 0.0316 µM) of the same compound?
A: 2.59%

Q: And the viability, T/C (second compound 1 µM, first compound 0.1 µM)?
A: 0.76%

Q: And the viability, T/C (second compound 3.16 µM, first compound 0.000316 µM)?
A: 0.59%

Q: What about the viability, T/C (second compound 3.16 µM, first compound 0.001 µM) of the same compound?
A: 0.64%

Q: And the viability, T/C (second compound 3.16 µM, first compound 0.00316 µM)?
A: 0.58%

Q: What about the viability, T/C (second compound 3.16 µM, first compound 0.01 µM) of the same compound?
A: 0.53%

Q: What about the viability, T/C (second compound 3.16 µM, first compound 0.0316 µM) of the same compound?
A: 0.57%

Q: And the viability, T/C (second compound 3.16 µM, first compound 0.1 µM)?
A: 0.46%

Q: What about the viability, T/C (second compound 10 µM, first compound 0.000316 µM) of the same compound?
A: 0.41%

Q: What about the viability, T/C (second compound 10 µM, first compound 0.001 µM) of the same compound?
A: 0.43%

Q: And the viability, T/C (second compound 10 µM, first compound 0.00316 µM)?
A: 0.45%

Q: What about the viability, T/C (second compound 10 µM, first compound 0.01 µM) of the same compound?
A: 0.44%

Q: And the viability, T/C (second compound 10 µM, first compound 0.0316 µM)?
A: 0.51%

Q: What about the viability, T/C (second compound 10 µM, first compound 0.1 µM) of the same compound?
A: 0.56%
